What was measured:
[1] = molecular target: Tt-CI (Tetrahymena thermophila complex I, in Tt-SC I+III2) (Tetrahymena thermophila, UniProt Q23KE4); assay: cryo-EM structure; type: binding; conditions: 2.6 Å nominal resolution; native bound cofactor of the peripheral arm
[2] = molecular target: Tetrahymena thermophila complex III protomer (Tt-CIII) (Tetrahymena thermophila (endogenous)); assay: cryo-EM structure

Sequence of Tt-CI (Tetrahymena thermophila complex I, in Tt-SC I+III2) (Q23KE4 32-474): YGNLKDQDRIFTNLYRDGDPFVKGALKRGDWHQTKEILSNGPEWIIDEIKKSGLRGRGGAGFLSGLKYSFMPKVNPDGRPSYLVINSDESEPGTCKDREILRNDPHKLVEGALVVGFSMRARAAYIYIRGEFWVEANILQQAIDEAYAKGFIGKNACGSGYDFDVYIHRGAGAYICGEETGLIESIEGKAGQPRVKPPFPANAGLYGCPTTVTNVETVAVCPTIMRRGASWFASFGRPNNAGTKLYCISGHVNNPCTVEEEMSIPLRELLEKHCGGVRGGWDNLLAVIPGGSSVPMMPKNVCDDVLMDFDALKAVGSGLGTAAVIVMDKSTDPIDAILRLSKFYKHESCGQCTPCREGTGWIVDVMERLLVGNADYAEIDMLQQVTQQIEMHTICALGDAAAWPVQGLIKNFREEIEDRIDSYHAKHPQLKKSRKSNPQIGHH
Sequence of Tt-CI (Tetrahymena thermophila complex I, in Tt-SC I+III2) (Q951B1 1-442 partner): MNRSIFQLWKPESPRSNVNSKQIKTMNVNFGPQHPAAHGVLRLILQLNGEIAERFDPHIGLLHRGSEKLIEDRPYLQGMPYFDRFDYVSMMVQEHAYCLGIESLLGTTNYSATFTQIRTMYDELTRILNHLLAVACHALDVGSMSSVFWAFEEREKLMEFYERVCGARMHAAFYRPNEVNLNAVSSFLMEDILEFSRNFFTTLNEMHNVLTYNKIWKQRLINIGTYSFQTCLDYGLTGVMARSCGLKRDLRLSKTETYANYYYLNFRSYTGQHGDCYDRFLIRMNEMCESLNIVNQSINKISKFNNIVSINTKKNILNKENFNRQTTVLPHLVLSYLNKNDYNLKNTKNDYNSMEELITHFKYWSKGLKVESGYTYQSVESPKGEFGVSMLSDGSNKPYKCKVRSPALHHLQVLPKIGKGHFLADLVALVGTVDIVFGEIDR
Sequence of Tt-CI (Tetrahymena thermophila complex I, in Tt-SC I+III2) (Q951B4 1-162 partner): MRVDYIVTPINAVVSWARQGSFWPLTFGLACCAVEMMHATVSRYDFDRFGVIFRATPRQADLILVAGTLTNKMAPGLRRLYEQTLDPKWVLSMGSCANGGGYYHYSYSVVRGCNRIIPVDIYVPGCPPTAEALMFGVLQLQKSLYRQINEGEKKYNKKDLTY
Sequence of Tt-CI (Tetrahymena thermophila complex I, in Tt-SC I+III2) (Q950Z7 1-121 partner): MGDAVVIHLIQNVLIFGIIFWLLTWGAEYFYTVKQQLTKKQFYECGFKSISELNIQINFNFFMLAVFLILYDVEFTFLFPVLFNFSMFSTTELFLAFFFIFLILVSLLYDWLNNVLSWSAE

Molecule: Cc1cc2nc3c(=O)[nH]c(=O)nc-3n(C[C@H](O)[C@H](O)[C@H](O)COP(=O)(O)O)c2cc1C [flavin mononucleotide]
- cryo-EM structure [1]: relative locations of the flavin mononucleotide (FMN) co-factor and eight ironsulfur clusters

Molecule: Tetrahymena thermophila complex III protomer (Tt-CIII)
- stoichiometry N [2]: 2
